“Also recorded” adds a separate entry of the source.

The record followed here is PMC4554797 (Bioorganic & medicinal chemistry, 2015).

For one series, the system named is Melanoma tumors. Nature of the series: Tumor specimen analysis. Format: in vivo, athymic nude mice.
The subject of another series is VEGF. Nature of the series: Serum analysis, circulating VEGF. It counts as in vivo, mouse. Conditions: data not shown.
Another series has as its system OVCAR-3. Nature of the series: Wound healing assay. It counts as cell-based, human. The note with it: OVCAR-3, 5 μM.
Another series relates to MDA-MB-231. Nature of the series: Wound healing assay. Format: cell-based, human. Conditions: MDA-MB-231, 5 μM.
The target in series [1] is T1, ATX (Homo sapiens, UniProt Q13822). Nature of the series: Dilution/dialysis washout experiment, ATX activity by FS-3. Format: biochemical. Conditions: pre-incubated two minutes, over 1000-fold dilution over approximately one hour.
For series [2], the system named is MDA-MB-231, OVCAR-3, SKOV-3 and MeWo cells. Nature of the series: Wound healing assay, all cell lines examined. Format: cell-based, human.
The test system of a further series is KC/CXCL1. Nature of the series: Serum analysis, mouse Bio-Plex 23-Plex panel. It counts as in vivo. The note with it: at necropsy; p<0.05 at 20 mg/kg, p<0.001 at 50-40 mg/kg vs. control.
Series [3] has as its target T1, ATX. Nature of the series: ATX Inhibitor Screening Kit, FS-3 hydrolysis. Format: biochemical. Conditions: for ATX inhibition (in words): dose-response mode, highest test concentration 10 μM.
The subject of series [4] is ATX. Nature of the series: Serum analysis, mouse ENPP2 ELISA. The note with it: at necropsy. Format: in vivo. For orientation: ELISA stands for enzyme-linked immunosorbent assay.
In a further series the test system is MeWo cells. Nature of the series: Animal model of melanoma. It counts as in vivo, athymic nude mice. Conditions: for Tumor growth vs. DMF control: 30 mg/kg i.p. three times a week.
Series [5] concerns multiple cancer cell lines. Nature of the series: Cell viability assay. Format: cell-based, human. The note with it: 48 h; for Effect on cell viability (in words): HT-29, PC-3, MDA-MB-231, MeWo, SB-2, OVCAR-3, SKOV-3.
The test system of the next series is MeWo. Nature of the series: Cell viability assay. It counts as cell-based, human. Conditions: MeWo cells, 48 h, over the concentrations tested.

Turning to `C=C(CCCCCCCCCCCCCCCC)S(=O)(=O)CCC[N+](C)(C)C.[Cl-]` [CVS-16, N,N,N-trimethyl-3-(octadec-1-en-2-ylsulfonyl)propan-1-aminium chloride], in the series with Melanoma tumors (20 mg/kg), the “Specimens with mixed areas of viable and necrotic endothelial cells” value was 50%; the “Specimens with only viable endothelial cells” value turned out to be 50%. Further, in the series on Melanoma tumors (40-50 mg/kg, p<0.01 vs. control, p<0.05 vs. 20 mg/kg), the “Percent of necrotic tissue within the tumor” value is recorded as “significantly more necrosis than control”. In addition, the “Ki-67 staining of tumor sections” value in the series with Melanoma tumors (data not shown) is on record as “no significant differences”. In addition, the “Circulating VEGF vs. controls” value in the series with VEGF is listed as “did not observe any change”. In addition, the “Reduction of wound healing” value with OVCAR-3 is “over 75%”. Further, in the series on MDA-MB-231, the “Reduction of wound healing” value was “over 75%”. Besides, the “ATX inhibition after washout” value on ATX [1] is listed as “did not decrease the ATX inhibition”. For the setting “50 mg/kg group (n=5)”, the Deaths result is listed as “one mouse”. For the same compound, the “Clinical condition of mice” value (50 mg/kg i.p., 46th day of the study) was “severely dehydrated”. The “Wound healing (in words)” value in series [2] (5 μM, 24 h, vs. untreated) is “inhibited wound healing”. Besides, the “Wound closure in combination with LPA” value in [2] (CVS-16 5 μM combined with LPA (18:1, 1 μM), in most cases) is reported as “LPA was not able to overcome the inhibition”. In the series with KC/CXCL1, the “Serum KC/CXCL-1” value is “significant reduction”. For the same compound, the “ATX inhibition after short pre-incubation” value at ATX [3] (pre-incubating ATX with compound for 2 minutes) is “complete inhibition”. In addition, in the series on ATX [4] (CVS-16 treated animals, p<0.05), the “Circulating ATX in serum vs. control” value was “significant reduction”. Moreover, in the series with MeWo cells (20 mg/kg i.p. three times a week), the “Tumor volume vs. control” value is recorded as “no significant difference”. Also, the “Time over which inhibition of tumor volume was sustained” value with MeWo cells (40-50 mg/kg, days after the injection of tumor cells) is given as “approximately 53 days”. The “Tumor sizes vs. control” value in the series on MeWo cells (50-40 mg/kg i.p. three times a week, day 57 (p<0.05) and day 65 (p<0.001)) was “achieved statistical significance”. In addition, in the series with MeWo cells (dose not given at this place), the “Melanoma progression in in vivo tumor model” value is listed as “significantly inhibited melanoma progression”. In series [5], the “Concentration range of significant activity on cell viability” value was in the range of 0.5 to 5 µM and the “Effect on cell viability (in words)” value is “reduced cell viability to some extent”.

Regarding `O=C1S/C(=C\c2ccc(OCc3cccc(B(O)O)c3)cc2)C(=O)N1Cc1ccc(F)cc1` [HA-130, reference compound], the “Circulating ATX in serum vs. control” value in the series with ATX [4] (30 mg/kg) is “no significant difference”. In addition, the “Tumor growth vs. DMF control” value in the series with MeWo cells was “neither of these ATX inhibitors reached statistical significance; also recorded: did not impact tumor progression”.

Consider `O=C(CCN1CCN(C(=O)OCc2cc(Cl)cc(Cl)c2)CC1)c1ccc2[nH]c(=O)oc2c1` [PF-8380, reference compound], for which the “Circulating ATX in serum vs. control” value in the series on ATX [4] (30 mg/kg) is recorded as “no significant difference”. The “Tumor growth vs. DMF control” value in the series with MeWo cells is listed as “neither of these ATX inhibitors reached statistical significance; also recorded: did not impact tumor progression”.

In the case of `C=C(CCCCCCCCCCCCCCCC)S(=O)(=O)c1ccccc1` [PVS-16], the “ATX inhibition after washout” value at ATX [1] is on record as “no evidence of inhibiting ATX activity”. Moreover, the “ATX inhibition (in words)” value is given as “did not inhibit ATX” at ATX [3] and “no binding effect” at ATX [3] (listed as PVS-16 (21)). Further, the “Effect on cell viability (in words)” value in series [5] is reported as “little effect on cell viability”; in series [5] (listed as PVS-16 (21)), “most cell types were unaffected”.

Turning to `CN(C)/N=N/c1[nH]cnc1C(N)=O` [dacarbazine], in the series with MeWo, the Cell viability reached is recorded as ≥ 50%.

On to `CC(=O)O[C@H]1C(=O)[C@@]2(C)[C@H]([C@H](OC(=O)c3ccccc3)[C@]3(O)C[C@H](OC(=O)[C@H](O)[C@@H](NC(=O)c4ccccc4)c4ccccc4)C(C)=C1C3(C)C)[C@]1(OC(C)=O)CO[C@@H]1C[C@@H]2O` [paclitaxel], for which the Cell viability reached in the series on MeWo is on record as ≥ 50%.

Regarding `CC[C@]1(O)C[C@H]2CN(CCc3c([nH]c4ccccc34)[C@@](C(=O)OC)(c3cc4c(cc3OC)N(C=O)[C@H]3[C@@](O)(C(=O)OC)[C@H](OC(C)=O)[C@]5(CC)C=CCN6CC[C@]43[C@@H]65)C2)C1` [vincristine], the Cell viability reached in the series on MeWo is ≥ 50%.
